This is an account of results in patent publication US7572606B1 (Nereus Pharmaceuticals, Inc., priority 2005, dated 2009).

The target of data set [1] is caspase-like (PGPH) activity of rabbit muscle 20S proteasome (Oryctolagus cuniculus, UniProt A0A5F9DQW2). Nature of the data set: In vitro inhibition of 20S proteasome, Z-LLE-AMC.
The subject of another data set is RPMI 8226. Put plainly: Cell growth inhibition, resazurin, 48 h. As to conditions: RPMI 8226, 48 h drug exposure. On the procedure: (§1) RPMI 8226 (CCL-155), HT-29 (HTB-38), and B16-F10 (CRL-6475) cells were purchased from ATCC. RPMI 8226 cells were maintained in RPMI 1640 media supplemented with 10% (v/v) FBS, 2 mM L-glutamine, 1 mM sodium pyruvate and Penicillin/Streptomycin at 100 IU/ml and 100 μg/ml, respectively. HT-29 cells were maintained in McCoys 5A supplemented with 10% (v/v) FBS, 2 mM L-glutamine, 1 mM sodium pyruvate, 1% (v/v) non-essential amino acids, 10 mM HEPES and Penicillin/Streptomycin at 100 IU/ml and 100 μg/ml, respectively. B16-F10 cells were maintained in DMEM supplemented with 10% (v/v) FBS, 2 mM L-glutamine, 10 mM HEPES and Penicillin/Streptomycin at 100 IU/ml and 100 μg/ml, respectively.
(§2) RPMI 8226 cells were seeded at 2×10^4 cells/well in 90 μl RPMI media containing 10% (v/v) FBS or 1% (v/v) FBS into 96 well black-walled, clear-bottom tissue culture plates. […] Formulae II-16, II-17 and Formula II-18 were serially diluted in media containing 1% or 10% FBS and added in triplicate to the test wells. […] The final concentration of Formula II-18 ranged from 2 μM to 630 pM.

Another data set has as its system MES-SA/Dx5. Nature of the data set: Cell growth inhibition, resazurin, 48 h. The conditions noted are these: for EC50: MES-SA/Dx5, 48 h drug exposure. On the procedure:
(§3) Concentrations ranging from 6.32 μM to 2 nM were tested for II-2 and II-4.

Data set [2] addresses T1, trypsin-like activity of rabbit muscle 20S proteasome (Oryctolagus cuniculus, UniProt G1SWK8).
T1 construct: EC50 Trypsin-like; other: purified rabbit 20S proteasome, Boc-LRR-AMC; other: under the conditions tested
T1 sequence (G1SWK8 1-271): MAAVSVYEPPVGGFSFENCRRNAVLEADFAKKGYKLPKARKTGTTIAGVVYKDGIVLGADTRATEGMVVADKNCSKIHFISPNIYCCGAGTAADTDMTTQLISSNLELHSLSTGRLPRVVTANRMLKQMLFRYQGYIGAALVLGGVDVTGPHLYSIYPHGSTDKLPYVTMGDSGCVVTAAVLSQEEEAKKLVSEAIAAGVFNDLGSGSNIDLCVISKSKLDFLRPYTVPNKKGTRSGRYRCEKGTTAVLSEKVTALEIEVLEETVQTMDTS
Nature of the data set: In vitro inhibition of 20S proteasome, Boc-LRR-AMC. It counts as biochemical.

The test system of another data set is HT-29. Nature of the data set: Cell growth inhibition, resazurin, 48 h. In kind it is cell-based, human. The conditions noted are these: HT-29, 48 h drug exposure. The procedure:
as §1, §2

The next data set has as its system U266. Put plainly: Cell growth inhibition, resazurin, 48 h. It counts as cell-based, human. As to conditions: U266, 48 h drug exposure, read-out: EC50.
A further data set has as its system HL-60/MX2. Put plainly: Cell growth inhibition, resazurin, 48 h. The conditions noted are these: HL-60/MX2, 48 h drug exposure. The procedure:
(§4) The DNA binding agent Mitoxantrone was included as a control, as HL-60/MX2 cells are reported to be resistant to this chemotherapeutic agent (Harker W. G. et al. 1989).
as §3

In a further data set the test system is B16-F10. Nature of the data set: Cell growth inhibition, resazurin, 48 h. In kind it is cell-based, mouse. The conditions noted are these: B16-F10, 48 h drug exposure. The procedure: as §1, §2
The subject of data set [3] is NF-κB-mediated luciferase activity in HEK293 NF-κB/Luc cells. Put plainly: NF-κB-mediated luciferase reporter gene assay. As to conditions: for EC50: 6 h TNF-α stimulation; for luciferase activity upon TNF-α stimulation: pretreatment of NF-κB/Luc 293 cells. In kind it is cell-based, human. The procedure:
The HEK293 NF-κB/luciferase reporter cell line is a derivative of the human embryonic kidney cell line (ATCC; CRL-1573) and carries a luciferase reporter gene under the regulation of 5×NF-κB binding sites. […] When performing the luciferase assay, the DMEM basal medium was replaced with phenol-red free DMEM basal medium and the G418 was omitted.
For NF-κB-mediated luciferase assays, HEK293 NF-κB/luciferase cells were seeded at 1.5×10^4 cells/well in 90 μl phenol-red free DMEM complete medium into Corning 3917 white opaque-bottom tissue culture plates. For Formulae II-2, II-4, II-5A and II-18, a 400 μM starting dilution was made in 100% DMSO and this dilution was used to generate an 8-point half log dilution series. […] For formula II-20, a 2.5 mM or 8 mM starting dilution was made in 100% DMSO and the final test concentrations ranged from 6.3 μM to 2.0 nM or 20 μM to 6.3 nM respectively. The plates were returned to the incubator for 1 hour. After 1 hr pretreatment, 10 μl of a 50 ng/ml TNF-α solution, prepared in the phenol-red free DMEM medium was added, and the plates were incubated for an additional 6 hours.
At the end of the TNF-α stimulation, 100 μl of Steady Lite HTS luciferase reagent (Packard Bioscience) was added to each well and the plates were left undisturbed for 10 min at room temperature before measuring the luciferase activity. The relative luciferase units (RLU) were measured by using a Fusion microplate fluorometer (Packard Bioscience).
NF-κB inducible luciferase activity was measured at 6 hours.

For a further data set, the system named is MDA-MB-231. Put plainly: Cell growth inhibition, resazurin, 48 h. In kind it is cell-based, human. The conditions noted are these: MDA-MB-231, 48 h drug exposure.
In data set [4] the target is T2, chymotrypsin-like activity of rabbit muscle 20S proteasome (Oryctolagus cuniculus, UniProt G1T4Q9).
T2 sequence (G1T4Q9 1-263): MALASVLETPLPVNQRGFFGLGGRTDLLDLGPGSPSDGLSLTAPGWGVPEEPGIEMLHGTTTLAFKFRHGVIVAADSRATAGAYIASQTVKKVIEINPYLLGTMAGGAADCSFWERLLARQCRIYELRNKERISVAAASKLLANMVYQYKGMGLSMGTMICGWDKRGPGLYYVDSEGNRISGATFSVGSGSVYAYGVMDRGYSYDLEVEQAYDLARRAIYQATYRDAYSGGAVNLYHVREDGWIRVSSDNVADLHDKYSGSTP
Put plainly: In vitro inhibition of 20S proteasome, suc-LLVY-AMC.

A further data set concerns NCI-H292. Put plainly: Cell growth inhibition, resazurin, 48 h. In kind it is cell-based, human. The conditions noted are these: NCI-H292, 48 h drug exposure.
The next data set relates to OVCAR-3. Nature of the data set: Cell growth inhibition, resazurin, 48 h. In kind it is cell-based, human. As to conditions: OVCAR-3, 48 h drug exposure.
The subject of the next data set is PC-3. Put plainly: Cell growth inhibition, resazurin, 48 h. As to conditions: Homo sapiens, PC-3, 48 h, PC-3, 48 h drug exposure.
The subject of another data set is HL-60. Put plainly: Cell growth inhibition, resazurin, 48 h. As to conditions: Homo sapiens, HL-60, 48 h, HL-60, 48 h drug exposure. The procedure: as §4, §3
The mark [5] stands for this setting: read-out: EC50 Chymotrypsin-like, purified rabbit 20S proteasome, suc-LLVY-AMC.
The mark [6] stands for this setting: read-out: EC50 Caspase-like, purified rabbit 20S proteasome, Z-LLE-AMC.
Setting [7] is: Mus musculus, B16-F10, 48 h, read-out: EC50.

Each structure is given as a SMILES string. Values joined by “and” are separate entries in the source; they are usually repeats but may differ in a detail not shown here. Identical values can stand only once. Like-named read-outs stand apart in the source and are kept apart here.

Sequence of caspase-like (PGPH) activity of rabbit muscle 20S proteasome (A0A5F9DQW2 1-212): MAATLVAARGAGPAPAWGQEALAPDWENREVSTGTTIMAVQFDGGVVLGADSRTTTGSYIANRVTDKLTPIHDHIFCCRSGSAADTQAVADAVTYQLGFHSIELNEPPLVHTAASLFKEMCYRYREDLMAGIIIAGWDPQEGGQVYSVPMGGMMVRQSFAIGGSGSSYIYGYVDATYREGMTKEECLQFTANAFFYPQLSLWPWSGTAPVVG

`CC[C@H]1C(=O)N[C@@]2([C@@H](O)C3CCCCC3)C(=O)O[C@@]12C` [Formula II-3]: the EC50 was > 20000 nM in data set [1] (read-out: EC50 Caspase-like); > 20000 nM with RPMI 8226 (Homo sapiens, RPMI-8226, 48 h); > 20000 nM with MES-SA/Dx5 (Homo sapiens, MES-SA/Dx5, 48 h); > 20000 nM with HT-29 (Homo sapiens, read-out: EC50); > 20000 nM in the data set on U266 (Homo sapiens, U-266, 48 h). The “inhibition of the trypsin-like activity of the 20S proteasome” value (“inhibition” below) in data set [2] is listed as “able to inhibit the trypsin-like activity”.
Regarding `O=C1c2c(O)ccc(O)c2C(=O)c2c(NCCNCCO)ccc(NCCNCCO)c21` [Mitoxantrone, reference compound], the EC50 with HL-60/MX2 is 827 nM and 1340 nM and 1170 nM; in the data set with HL-60/MX2 (Homo sapiens, HL60/MX2, 48 h) it was 1410 nM.
On to `C[C@@]12OC(=O)[C@]1([C@@H](O)[C@H]1CCC[C@H]3O[C@@H]13)NC(=O)[C@@H]2CCCl` [Formula II-5A], for which the EC50 in the data set on B16-F10 (Mus musculus, B16-F10, 48 h) was 78 ± 11 nM; in data set [1] (read-out: EC50 Caspase-like (PGPH), purified rabbit 20S proteasome, Z-LLE-AMC), 535 nM and 438 nM; in data set [3] (1 h pretreatment), 33 nM; with MDA-MB-231 (Homo sapiens, MDA-MB-231, 48 h), 61 ± 4.6 nM; in data set [4], 2 to 11 nM; in data set [4] (setting [5]), 7 nM. In addition, the EC50 in the data set on NCI-H292 (Homo sapiens, NCI-H292, 48 h) is 102 ± 19 nM; in the data set with OVCAR-3 (Homo sapiens, OVCAR-3, 48 h) it was 80 nM; with OVCAR-3, 64 nM; in data set [2] (purified rabbit 20S proteasome, Boc-LRR-AMC) it was 90 nM; with HT-29 (Homo sapiens, HT-29, 48 h), 67 ± 17 nM; in the data set with PC-3 it was 109 ± 15 nM. Moreover, the “luciferase activity upon TNF-α stimulation” value in [3] is given as “dose-dependent decrease of luciferase activity”. The “inhibition” value in data set [2] (under the conditions tested) is listed as “able to inhibit the trypsin-like activity”.
On to `C[C@@]12OC(=O)[C@]1([C@@H](O)[C@H]1CCC[C@@H]3O[C@H]13)NC(=O)[C@@H]2CCCl` [Formula II-5B], for which the EC50 in the data set on B16-F10 was 1140 nM; with B16-F10 (Mus musculus, B16-F10, 48 h), 1270 nM; in data set [1] (setting [6]), 3800 nM and 2900 nM; in [3] (1 h pretreatment), 279 nM; in the data set on MDA-MB-231, 957 nM; in [4], 13 to 88 nM. For the same compound, the EC50 was determined as 85 nM in data set [4] (setting [5]); 992 nM in the data set with NCI-H292 (Homo sapiens, NCI-H292, 48 h); 1250 nM in the data set with NCI-H292; 1320 nM in the data set on OVCAR-3 (Homo sapiens, OVCAR-3, 48 h); 1210 nM with HT-29; 1790 nM in the data set on PC-3. Also, in data set [3], the “luciferase activity upon TNF-α stimulation” value is “dose-dependent decrease of luciferase activity”. In addition, the “inhibition” value in data set [2] (under the conditions tested) is given as “able to inhibit the trypsin-like activity”.
Take `CC(=O)O[C@H]1C(=O)[C@@]2(C)[C@H]([C@H](OC(=O)c3ccccc3)[C@]3(O)C[C@H](OC(=O)[C@H](O)[C@@H](NC(=O)c4ccccc4)c4ccccc4)C(C)=C1C3(C)C)[C@]1(OC(C)=O)CO[C@@H]1C[C@@H]2O` [Paclitaxel, reference compound]: in the data set with MES-SA/Dx5 (human, 48 h), the “% cytotoxicity” value was determined as 78 ± 1%.
For `C[C@@]12OC(=O)[C@]1([C@@H](O)C1CCCCC1)NC(=O)[C@@H]2CCCl` [Formula II-2], the EC50 in the data set with B16-F10 (setting [7]) was 194 nM; in data set [1] (setting [6]), 1300 nM and 1700 nM; in the data set on RPMI 8226 (Homo sapiens, RPMI-8226, 48 h) it was 49 nM; with MES-SA/Dx5 (Homo sapiens, MES-SA/Dx5, 48 h) it was 220 nM; in the data set on MES-SA/Dx5, 138 nM; in the data set on HL-60, 237 nM. In addition, the EC50 was 129 ± 21 nM with HT-29 (Homo sapiens, read-out: EC50) and 39 nM in the data set on U266. Also, the “luciferase activity upon TNF-α stimulation” value in data set [3] is reported as “dose-dependent decrease of luciferase activity”. Further, the “inhibition” value in data set [2] (under the conditions tested) is on record as “able to inhibit the trypsin-like activity”.
On to `C[C@@]12OC(=O)[C@]1([C@@H](O)C1CCCCC1)NC(=O)[C@@H]2CCBr` [Formula II-4], for which the EC50 in the data set with B16-F10 (setting [7]) was 163 nM; in data set [1] (read-out: EC50 Caspase-like (PGPH)) it was 850 nM and 637 nM; in data set [3] (1 h pretreatment, read-out: EC50), 88 nM; in [3] (Homo sapiens, HEK293, 1 h pretreatment, read-out: EC50) it was 67 nM; in the data set with RPMI 8226 (Homo sapiens, RPMI-8226, 48 h), 57 nM; with RPMI 8226, 51 nM. Also, the EC50 in the data set on MES-SA/Dx5 (Homo sapiens, MES-SA/Dx5, 48 h) was 178 nM; with MES-SA/Dx5, 93 nM; with OVCAR-3 (Homo sapiens, read-out: EC50) it was > 6320 nM; in the data set on HL-60/MX2 (Homo sapiens, HL60/MX2, 48 h), 97 nM; in the data set on HL-60 it was 143 nM; with U266 (Homo sapiens, U-266, 48 h), 34 nM. For the same compound, the concentration giving a half-maximal response (EC50) with U266 came out at 39 nM. For the same compound, in data set [3], the “luciferase activity upon TNF-α stimulation” value is recorded as “dose-dependent decrease of luciferase activity”. Besides, in data set [2], the “inhibition” value is “able to inhibit the trypsin-like activity”.
